Measured values from the NIST ThermoML archive (doi:10.1021/je049814b).

Test: wn = mass fraction of the nth substance listed
Details: Liquid, Coaxial cylinder method

[Br-].[Na+] [sodium bromide] + O
thermal conductivity [W/m/K]
Details | 100 kPa | 2000 kPa | 10000 kPa | 40000 kPa
294.3 K, w1 = 0.1 | 0.58 | 0.58 | 0.586 | 0.596
294.7 K, w1 = 0.38 | 0.504 | 0.504 | 0.512 | 0.525
296 K, w1 = 0.2 | 0.56 | 0.56 | 0.565 | 0.575
297.2 K, w1 = 0.3 | 0.537 | 0.537 | 0.541 | 0.55
319.6 K, w1 = 0.38 | 0.531 | 0.531 | 0.536 | 0.549
319.9 K, w1 = 0.2 | 0.595 | 0.595 | 0.599 | 0.609
321.7 K, w1 = 0.1 | 0.618 | 0.618 | 0.624 | 0.635
323.9 K, w1 = 0.3 | 0.573 | 0.573 | 0.578 | 0.587
347.2 K, w1 = 0.38 | 0.56 | 0.56 | 0.565 | 0.578
350.2 K, w1 = 0.2 | 0.624 | 0.624 | 0.628 | 0.639
354.2 K, w1 = 0.1 | 0.648 | 0.648 | 0.653 | 0.664
357.7 K, w1 = 0.3 | 0.601 | 0.601 | 0.608 | 0.617
374.5 K, w1 = 0.38 | 0.58 | 0.58 | 0.589 | 0.603
377.9 K, w1 = 0.2 | 0.637 | 0.637 | 0.642 | 0.653
378.6 K, w1 = 0.1 | 0.659 | 0.659 | 0.663 | 0.674
380.2 K, w1 = 0.3 | 0.61 | 0.61 | 0.617 | 0.627
396.5 K, w1 = 0.2 | 0.643 | 0.643 | 0.648 | 0.659
398.7 K, w1 = 0.38 | 0.585 | 0.585 | 0.593 | 0.609
399.2 K, w1 = 0.1 | 0.664 | 0.664 | 0.669 | 0.679
401 K, w1 = 0.3 | 0.615 | 0.615 | 0.623 | 0.633
424.5 K, w1 = 0.38 | 0.585 | 0.585 | 0.593 | 0.609
426.4 K, w1 = 0.3 | 0.614 | 0.614 | 0.624 | 0.637
427.5 K, w1 = 0.1 | 0.664 | 0.664 | 0.671 | 0.682
429.2 K, w1 = 0.2 | 0.643 | 0.643 | 0.649 | 0.659
450.6 K, w1 = 0.2 | 0.632 | 0.632 | 0.638 | 0.652
453.7 K, w1 = 0.1 | 0.652 | 0.652 | 0.659 | 0.672
455 K, w1 = 0.3 | 0.6 | 0.6 | 0.608 | 0.621
456.7 K, w1 = 0.38 | 0.572 | 0.572 | 0.583 | 0.6
483.2 K, w1 = 0.2 | – | – | 0.618 | 0.634
483.2 K, w1 = 0.38 | – | – | 0.569 | 0.59
486.2 K, w1 = 0.1 | – | – | 0.639 | 0.66
515.3 K, w1 = 0.1 | – | – | 0.611 | 0.634
515.7 K, w1 = 0.38 | – | – | 0.535 | 0.565
519.4 K, w1 = 0.2 | – | – | 0.583 | 0.601
541.3 K, w1 = 0.38 | – | – | 0.504 | 0.539
542.7 K, w1 = 0.1 | – | – | 0.576 | 0.604
547.6 K, w1 = 0.2 | – | – | 0.546 | 0.571
576.2 K, w1 = 0.2 | – | – | 0.504 | 0.535
576.5 K, w1 = 0.38 | – | – | 0.454 | 0.494
577.3 K, w1 = 0.1 | – | – | 0.525 | 0.566

[Br-].[K+] [potassium bromide] + O
thermal conductivity [W/m/K]
Details | 100 kPa | 2000 kPa | 10000 kPa | 40000 kPa
294.7 K, w1 = 0.1 | 0.578 | 0.578 | 0.582 | 0.592
295.7 K, w1 = 0.3 | 0.521 | 0.521 | 0.525 | 0.532
296.8 K, w1 = 0.2 | 0.553 | 0.553 | 0.557 | 0.565
320.9 K, w1 = 0.1 | 0.612 | 0.612 | 0.617 | 0.628
321.4 K, w1 = 0.3 | 0.554 | 0.554 | 0.559 | 0.569
325.4 K, w1 = 0.2 | 0.589 | 0.589 | 0.595 | 0.602
351.2 K, w1 = 0.2 | 0.616 | 0.616 | 0.62 | 0.629
354.8 K, w1 = 0.1 | 0.644 | 0.644 | 0.65 | 0.662
357.6 K, w1 = 0.3 | 0.588 | 0.588 | 0.591 | 0.601
381.3 K, w1 = 0.1 | 0.661 | 0.661 | 0.669 | 0.682
384.2 K, w1 = 0.3 | 0.601 | 0.601 | 0.605 | 0.616
387.6 K, w1 = 0.2 | 0.634 | 0.634 | 0.638 | 0.647
403.2 K, w1 = 0.1 | 0.661 | 0.661 | 0.667 | 0.683
406.2 K, w1 = 0.2 | 0.632 | 0.632 | 0.638 | 0.648
409.6 K, w1 = 0.3 | 0.6 | 0.6 | 0.606 | 0.618
425.9 K, w1 = 0.1 | 0.657 | 0.657 | 0.662 | 0.681
427.2 K, w1 = 0.3 | 0.598 | 0.598 | 0.604 | 0.616
431.2 K, w1 = 0.2 | 0.628 | 0.628 | 0.634 | 0.646
456.9 K, w1 = 0.2 | 0.616 | 0.616 | 0.623 | 0.635
457.6 K, w1 = 0.1 | 0.643 | 0.643 | 0.65 | 0.665
463.1 K, w1 = 0.3 | 0.582 | 0.582 | 0.586 | 0.599
481.3 K, w1 = 0.2 | – | – | 0.609 | 0.623
488.2 K, w1 = 0.1 | – | – | 0.628 | 0.65
494.2 K, w1 = 0.3 | – | – | 0.564 | 0.579
516.3 K, w1 = 0.3 | – | – | 0.542 | 0.562
519.3 K, w1 = 0.1 | – | – | 0.598 | 0.622
520.6 K, w1 = 0.2 | – | – | 0.575 | 0.592
539.7 K, w1 = 0.3 | – | – | 0.511 | 0.538
543.2 K, w1 = 0.1 | – | – | 0.569 | 0.597
547.6 K, w1 = 0.2 | – | – | 0.539 | 0.564
571.3 K, w1 = 0.2 | – | – | 0.501 | 0.534
571.9 K, w1 = 0.1 | – | – | 0.522 | 0.55
575.6 K, w1 = 0.3 | – | – | 0.455 | 0.496
